Measured values reported in patent US7378397B2 (The Provost, Fellows and Scholars of the College of the …, priority 2000, dated 2008).
“Also recorded” adds a separate entry of the source. Where a SMILES comes first, the peptide text is derived from it. [ ]: non-standard residue; d: D form. hPhe = N[C@@H](CCc1ccccc1)C(=O)O; pGlu = O=C1CC[C@@H](C(=O)O)N1; Phg = N[C@H](C(=O)O)c1ccccc1

Experiments:
TRH-DE [1] = target: T1, TRH-DE (Sus scrofa, UniProt A0A287AP33); assay: HPLC assay of peptide hydrolysis by TRH-DE (Glp production); type: biochemical, porcine; details: for hydrolysis by TRH-DE (release of Glp): 1 mM peptide incubated with TRH-DE 18 h at 37° C., HPLC; for Rate of hydrolysis: peptide 1 mM, 37° C., Glp production by HPLC, mean±S.D.
T1 construct: The inventor purified TRH-DE from porcine brain according to purification procedures previously published by Dr. K. Bauer; from tissue; host or cells: porcine brain (TRH-DE); bovine kidney (DPP-IV, gift from Dr. C. H. Williams)
Procedure: (§1) The inventor purified TRH-DE from porcine brain according to purification procedures previously published by Dr. K. Bauer, (Max-Planck-Institut, Hannover, Germany) (1). TRH-DE was purified almost 20,000 fold. […] Dipeptidyl peptidase IV (DPP-IV) (EC 3.4.14.5), purified from bovine kidney (7.7 mg ml^−1, specific activity of 17.5 U mg^−1 with Gly-ProAMC as substrate), was obtained as a gilt from Dr. C. H. Williams (Queen's University Belfast, U.K). (DPP-IV was used as the coupling enzyme used in the fluorometric assays).
(§2) One unit (U) of enzyme activity was defined as that amount catalysing the formation of one μmol of product in one minute under the standard conditions employed. All incubations in the assays described below were carried out in 20 mM potassium phosphate buffer, pH 7.5, at 37° C.
Kinetic analysis of the peptide library using HPLC—The ability of each peptide in the library to act as a TRH-DE substrate was assessed using HPLC. As an initial screen, 1 mM peptide was incubated with 0.8 μg TRH-DE in a total volume of 1 ml for 18 h at 37° C. Control samples were included in which peptide (1 mM) or Glp (0.2 mM-0.8 mM) were incubated under identical conditions in the absence of TRH-DE. TRH-DE activity was terminated by the addition of TFA (0.15% v/v) and samples were then analysed using HPLC as described previously (24). Products resulting from TRH-DE hydrolysis could be separated on a C-18 reverse-phase column (Hypersil, UK) using a linear gradient of 0-70% acetonitrile in 0.08% (v/v) TFA. The concentration of Glp formed by the action of TRH-DE on the peptide library was measured by UV absorbance at 206 nm with a quantitative detection limit of 0.1 mM for a 40 μl injection volume, employing a signal to noise ratio of 10. Following the incubation of each peptide with TRH-DE, evidence of Glp in the sample was taken to indicate that the peptide was a TRH-DE substrate.
The rates of hydrolysis for each of those peptides identified as substrates were then compared by measuring Gip production using microassays with shorter incubation times. In these assays peptide (1 mM) was incubated at 37° C. in a total volume of 100 μl. 0.8-3.2 μg TRH-DE and incubations times of 5 min to 18 h were used routinely. Measurements were made in triplicate. The rate of TRH-OH hydrolysis was also measured by this method.

TRH-DE [2] = target: T1, TRH-DE; assay: continuous coupled fluorometric TRH-DE assay (TRHAMC substrate, DPP-IV coupling enzyme); type: biochemical, porcine; details: for inhibition at 1000 µM: peptide 1 mM, 5 μM TRHAMC substrate
Procedure: as §1, §2
Kinetic analysis of peptides that are not hydrolysed by TRH-DE. A recently-developed continuous coupled fluorometric assay (23) was used to investigate the ability of those library peptides that were not hydrolysed by TRH-DE to inhibit TRHAMC degradation by TRH-DE. In this assay, TRHAMC is the substrate and dipeptidyl peptidase IV (DPP-IV) (EC 3.4.14.5) is the coupling enzyme. The reaction sequence is:
The reaction was monitored continuously by measuring the increase in AMC fluorescence. A linear progress curve with no discernible lag period was observed when the reaction was monitored over a period of 10 minutes. Nevertheless, data sampling was not commenced until 100 s from the start of the reaction to ensure measurements were taken after a steady state had been reached (see Ref. 23).
In a preliminary experiment, the peptides were screened for their ability to inhibit TRH-DE activity. The initial rate of TRHAMC hydrolysis by TRH-DE was measured by incubating 5 μM TRHAMC with 1.23 μg DPP-IV and 0.32 μg TRH-DE, both in the absence and presence of each library peptide (1 mM final concentration) under standard assay conditions (23). In each case the percentage inhibition (i%) was calculated using the equation i%=100(1-vi/vo), where vi and vo are the initial velocities in the presence and absence of peptide, respectively.
Since these peptides were poor inhibitors they were not examined further. The Ki values for the remainder of the peptides were determined by measuring their effects on TRHAMC degradation by TRH-DE using the continuous assay. Data were collected in duplicate at five different substrate concentrations and at least three different concentrations of each peptide.
Reversibility and time dependence of the inhibition produced by Glp-Gln-ProNH2, Glp-Asn-ProNH2 and Glp-Asn-ProAMC were examined by initially preincubating TRH-DE with each peptide at 37° C. for various periods up to 75 min. To investigate time dependence, the enzyme-peptide solution was subsequently added to the reaction mixture containing TRHAMC, DPP-IV, buffer and peptide, and TRH-DE activity was measured using the continuous assay. The final concentration of Glp-Gln-ProNH2, Glp-Asn-ProNH2 and Glp-Asn-ProAMC used was 400, 160 and 1 μM, respectively. […] TRH-DE activity was not affected by pre-incubation at 37° C.
Fluorescence measurements were made using a Perkin Elmer LS 50B Luminescence Spectrometer fitted with a thernostated cell holder. Wavelengths for excitation and emission were set at 370 nm and 440 nm, respectively, with slit widths of 10 nm and 5 nm, respectively.

[3] = calculated from percent inhibition measured in duplicate at 5 μM substrate

T1 sequence (A0A287AP33 1-1066): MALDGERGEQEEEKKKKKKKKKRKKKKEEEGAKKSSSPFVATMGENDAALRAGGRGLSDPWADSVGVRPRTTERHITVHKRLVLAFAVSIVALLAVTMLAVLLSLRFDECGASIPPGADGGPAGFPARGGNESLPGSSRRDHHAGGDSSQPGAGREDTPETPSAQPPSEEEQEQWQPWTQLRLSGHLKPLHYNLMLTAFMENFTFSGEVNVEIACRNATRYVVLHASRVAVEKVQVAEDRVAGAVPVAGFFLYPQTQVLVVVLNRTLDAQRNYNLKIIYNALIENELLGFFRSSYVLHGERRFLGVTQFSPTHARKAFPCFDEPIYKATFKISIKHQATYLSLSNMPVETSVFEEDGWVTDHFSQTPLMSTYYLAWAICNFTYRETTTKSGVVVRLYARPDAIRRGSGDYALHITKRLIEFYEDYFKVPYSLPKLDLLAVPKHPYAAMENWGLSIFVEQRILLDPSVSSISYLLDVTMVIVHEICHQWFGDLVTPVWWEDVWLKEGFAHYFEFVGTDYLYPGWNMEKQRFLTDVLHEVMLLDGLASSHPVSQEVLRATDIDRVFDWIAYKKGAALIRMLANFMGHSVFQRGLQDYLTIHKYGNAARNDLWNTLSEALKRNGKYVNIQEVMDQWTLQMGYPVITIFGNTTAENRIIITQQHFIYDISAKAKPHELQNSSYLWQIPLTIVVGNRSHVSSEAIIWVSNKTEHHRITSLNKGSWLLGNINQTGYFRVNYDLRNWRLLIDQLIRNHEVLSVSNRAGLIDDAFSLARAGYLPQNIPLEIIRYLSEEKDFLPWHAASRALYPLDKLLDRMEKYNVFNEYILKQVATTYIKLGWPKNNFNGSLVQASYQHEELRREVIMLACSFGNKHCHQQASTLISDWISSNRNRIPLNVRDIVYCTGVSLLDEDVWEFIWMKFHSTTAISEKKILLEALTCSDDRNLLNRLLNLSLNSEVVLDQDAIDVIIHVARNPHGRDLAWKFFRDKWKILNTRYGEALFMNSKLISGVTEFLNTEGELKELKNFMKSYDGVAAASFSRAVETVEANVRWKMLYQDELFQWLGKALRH

Rate of hydrolysis (TRH-DE [1])	Molecule	other results
	NC(=O)[C@@H]1CCCN1C(=O)[C@@H](NC(=O)[C@@H]1CCC(=O)N1)c1ccccc1 [Glp-Phg-ProNH2] ([pGlu]-[Phg]-Pro-NH2)	hydrolysis by TRH-DE (release of Glp) (TRH-DE [1]): No detectable Glp; Ki (TRH-DE [2]; non-linear regression, five TRHAMC concentrations and at least three peptide concentrations, mean±S.D. (n=3)): 356 ± 19 µM; inhibition at 1000 µM (TRH-DE [2]): 57%
	NC(=O)[C@@H]1CCCN1C(=O)[C@@H]1CCCN1C(=O)[C@@H]1CCC(=O)N1 [Glp-Pro-ProNH2] ([pGlu]-Pro-Pro-NH2)	hydrolysis by TRH-DE (release of Glp) (TRH-DE [1]): No detectable Glp; Ki (TRH-DE [2]; estimated from <20% inhibition at 1 mM peptide with the competitive inhibition relationship): > 1000 µM; inhibition at 1000 µM (TRH-DE [2]): 3%
0.66 ± 0.04 (5) U mg^−1	NC(=O)[C@@H]1CCCN1C(=O)[C@H](Cc1ccc(O)cc1)NC(=O)[C@@H]1CCC(=O)N1 [Glp-Tyr-ProNH2] ([pGlu]-Tyr-Pro-NH2)	
	COc1cccc(NC(=O)[C@@H]2CCCN2C(=O)[C@H](CC(N)=O)NC(=O)[C@@H]2CCC(=O)N2)c1 [m-anisidide]	Ki (TRH-DE [2]; [3]): 0.86 µM
	COc1ccccc1NC(=O)[C@@H]1CCCN1C(=O)[C@H](CC(N)=O)NC(=O)[C@@H]1CCC(=O)N1 [o-anisidide]	Ki (TRH-DE [2]; [3]): 11.6 µM
	COc1ccc(NC(=O)[C@@H]2CCCN2C(=O)[C@H](CC(N)=O)NC(=O)[C@@H]2CCC(=O)N2)cc1 [p-anisidide]	Ki (TRH-DE [2]; [3]): 3.24 µM
0.06 ± 0.00 (4) U mg^−1	Glp-Ileu-ProNH2	
0.04 ± 0.00 (6) U mg^−1	Glp-NorVal-ProNH2	
0.02 ± 0.00 (3) U mg^−1	[pGlu]-Ala-Pro-NH2	hydrolysis by TRH-DE (release of Glp) (TRH-DE [1]): not completely degraded; also recorded: only partially degraded; Glp produced (TRH-DE [1]; 1 mM peptide, overnight incubation with TRH-DE): 0.2 mM
0.41 ± 0.02 (4) U mg^−1	[pGlu]-Arg-Pro-NH2	
	[pGlu]-Cys-Pro-NH2	hydrolysis by TRH-DE (release of Glp) (TRH-DE [1]): no detectable cleavage
0.14 ± 0.01 (5) U mg^−1	[pGlu]-Leu-Pro-NH2	
0.46 ± 0.02 (3) U mg^−1	[pGlu]-Lys-Pro-NH2	
0.21 ± 0.03 (4) U mg^−1	[pGlu]-Met-Pro-NH2	
0.05 ± 0.00 (3) U mg^−1	[pGlu]-Ser-Pro-NH2	
0.14 ± 0.01 (5) U mg^−1	[pGlu]-Thr-Pro-NH2	
0.05 ± 0.00 (3) U mg^−1	[pGlu]-Val-Pro-NH2	
0.05 ± 0.00 (3) U mg^−1	[pGlu]-[hPhe]-Pro-NH2	
